We go through eleven compounds from ChEMBL document CHEMBL4190348, “Synthesis of cytotoxically active derivatives based on alkylated 2,3-seco-triterpenoids” (Eur J Med Chem, 2017).

Holding throughout (type): functional, cell-based
The nature of assay [1]: Cytotoxicity against human MS cells assessed as reduction in cell viability incubated for 72 hrs by MTT assay. On the technique in general: Tetrazolium assays rely on reduction of a dye to a coloured formazan, in cell work by metabolically active cells.
In a further assay the test system is A549. The assay is described as follows: Cytotoxicity against human A549 cells assessed as reduction in cell viability incubated for 72 hrs by MTT assay. Conditions: A549, 72 h.
The subject of a further assay is HCT-116. The assay is described as follows: Cytotoxicity against human HCT116 cells assessed as reduction in cell viability incubated for 72 hrs by MTT assay. The note with it: HCT-116, 72 h.
For the next assay, the system named is HEp-2. In words: Cytotoxicity against human Hep2 cells assessed as reduction in cell viability incubated for 72 hrs by MTT assay. The note with it: HEp-2, 72 h.
In the next assay the test system is RD. In words: Cytotoxicity against human TE32 cells assessed as reduction in cell viability incubated for 72 hrs by MTT assay.

Some results are limits rather than exact numbers.

What is called IC50 is the midpoint of a concentration-inhibition curve. With `C=C(C)[C@@H]1CC[C@]2(C(=O)OC)CC[C@]3(C)[C@H](CC[C@@H]4[C@@](C)(CC#N)[C@H](C(C)(C)[C@@H](C)O)CC[C@]43C)[C@@H]12`, the IC50 in assay [1] worked out at 15.1 µM; in the assay with A549 it was 19.1 µM; with HCT-116, 31.7 µM; in the assay on HEp-2, 43.8 µM; in the assay with RD it was 20.2 µM.

On to `COC(=O)[C@]12CC[C@@H](C(C)=O)[C@@H]1[C@H]1CC[C@@H]3[C@@]4(C)C(C#N)=C(C)C(C)(C)[C@@H]4CC[C@@]3(C)[C@]1(C)CC2`, for which the IC50 (in assay [1]; in the assay on A549; in the assay on HCT-116; with HEp-2; in the assay with RD) was > 100 µM each time.

As for `C=C(C=O)[C@@H]1CC[C@]2(C(=O)OC)CC[C@]3(C)[C@H](CC[C@@H]4[C@@](C)(CC#N)[C@H](C(C)(C)C(=O)C(Br)Br)CC[C@]43C)[C@@H]12`, the IC50 was 6.27 µM in assay [1]; > 100 µM with A549; 26.3 µM in the assay on HCT-116; > 100 µM in the assay with HEp-2; 6.96 µM with RD.

`CC1(C)CC[C@]23CC[C@]4(C)[C@H](CC[C@@H]5[C@@]6(C)C/C(=N\O)[C@](C)(O)C(C)(C)[C@@H]6CC[C@]54C)[C@H]2[C@H]1OC3`: the IC50 in assay [1] was 87.3 µM; in the assay with A549, > 100 µM; in the assay on HCT-116, > 100 µM; in the assay with HEp-2, 85.4 µM; with RD, 33.7 µM.

Take `COC(=O)[C@]12CC[C@@H](C(C)=O)[C@@H]1[C@H]1CC[C@@H]3[C@@](C)(CC#N)[C@H](C(C)(C)C(C)=O)CC[C@@]3(C)[C@]1(C)CC2`: the concentration for half-maximal inhibition (IC50) (in assay [1]; in the assay on A549; with HCT-116; in the assay with HEp-2; with RD) was > 100 µM each time.

`C[C@@H](O)C(C)(C)[C@@H]1CC[C@]2(C)[C@H](CC[C@@H]3[C@H]4[C@H]5OC[C@@]4(CCC5(C)C)CC[C@]32C)[C@@]1(C)CC#N`: the IC50 in assay [1] is 83.3 µM; in the assay on A549, > 200 µM; in the assay on HCT-116, > 100 µM; in the assay on HEp-2, > 100 µM; in the assay with RD it was 96.5 µM.

With `CC1(C)CC[C@]23CC[C@]4(C)[C@H](CC[C@@H]5[C@@]6(C)C(C#N)=C(CO)C(C)(C)[C@@H]6CC[C@]54C)[C@H]2[C@H]1OC3`, the IC50 in assay [1] is > 100 µM; in the assay with A549 it was 57.8 µM; in the assay with HCT-116 it was > 100 µM; with HEp-2 it was > 100 µM; in the assay on RD it was > 100 µM.

On to `CC1(C)CC[C@]23CC[C@]4(C)[C@H](CC[C@@H]5[C@@](C)(CC#N)[C@H](C(C)(C)C(=O)CBr)CC[C@]54C)[C@H]2[C@H]1OC3`, for which the half-maximal inhibitory concentration (IC50) was > 100 µM in assay [1]; > 100 µM in the assay with A549; > 100 µM with HCT-116; > 100 µM in the assay with HEp-2; 52.9 µM with RD.

For the compound `C=C(C=O)[C@@H]1CC[C@]2(C(=O)OC)CC[C@]3(C)[C@H](CC[C@@H]4[C@@]5(C)C(C#N)=C(C)C(C)(C)[C@@H]5CC[C@]43C)[C@@H]12`, the IC50 came to 8.59 µM in assay [1]; 36 µM in the assay on A549; 7.09 µM in the assay with HCT-116; 17.4 µM in the assay on HEp-2; 21.8 µM in the assay with RD.

For `CC(=O)O[C@H](C)C(C)(C)[C@@H]1CC[C@]2(C)[C@H](CC[C@@H]3[C@H]4[C@H]5OC[C@@]4(CCC5(C)C)CC[C@]32C)[C@@]1(C)CC#N`, the IC50 in assay [1] was 21.3 µM; with A549, 45.7 µM; with HCT-116 it was 65.3 µM; in the assay with HEp-2, > 100 µM; in the assay with RD it was 31.9 µM.

As to `CC1(C)CC[C@]23CC[C@]4(C)[C@H](CC[C@@H]5[C@@](C)(CC#N)[C@H](C(C)(C)C(=O)C(Br)Br)CC[C@]54C)[C@H]2[C@H]1OC3`, the IC50 (in assay [1]; with A549; in the assay with HCT-116; with HEp-2; with RD) was > 100 µM in each case.
